From ChEMBL document CHEMBL1150095, “Antitumor activity and stereochemistry of acetylenic alcohols from the sponge Cribrochalina vasculum” (1995)
Calls of active or inactive are those of the source. The rule behind the calls is not given here.

What was measured:
Type in all cases: functional
IGROV-1 [1] = assay: Antitumor activity against human IGROV1 cells
NCI-H522 = assay: Antitumor activity against human NCI-H522 cells
IGROV-1 [2] = assay: Antitumor activity against human IGROV1 cell xenografted athymic mouse assessed as increase in life span at 50 mg/kg, ip once daily; conditions: route intraperitoneal

## C#C[C@@H](O)/C=C/CCCCCCCCCCCCCCCC
IGROV-1 [1]
  Activity: Active
NCI-H522
  Activity: Active

## C#C[C@@H](O)/C=C/CCCCCCCCCCCCCCC
IGROV-1 [1]
  Activity: Active
NCI-H522
  Activity: Active
IGROV-1 [2]
  Activity: 36.5 days
